Assay results taken from patent US12448389B2, “BRM targeting compounds and associated methods of use” (Prelude Therapeutics Incorporated, priority 2020, dated 2025).

Assays:
[1] = molecular target: T1, SMARCA2-HiBiT (Homo sapiens, UniProt P51531); assay: SMARCA2 HiBiT degradation assay in HeLa cells; assay type: cell-based; details: 18 hours incubation; for DC50: read-out: HeLa_HiBit-SM2 DC50; for Dmax: HeLa, read-out: HeLa-HiBit-SM2 Dmax (%)
T1 construct: SMARCA2-HiBiT knock-in Hela monoclonal cell (CS302366); host or cells: HeLa monoclonal knock-in line (CRISPR HiBiT knock-in at the endogenous locus, heterozygous)
T1 sequence (P51531 whole entry): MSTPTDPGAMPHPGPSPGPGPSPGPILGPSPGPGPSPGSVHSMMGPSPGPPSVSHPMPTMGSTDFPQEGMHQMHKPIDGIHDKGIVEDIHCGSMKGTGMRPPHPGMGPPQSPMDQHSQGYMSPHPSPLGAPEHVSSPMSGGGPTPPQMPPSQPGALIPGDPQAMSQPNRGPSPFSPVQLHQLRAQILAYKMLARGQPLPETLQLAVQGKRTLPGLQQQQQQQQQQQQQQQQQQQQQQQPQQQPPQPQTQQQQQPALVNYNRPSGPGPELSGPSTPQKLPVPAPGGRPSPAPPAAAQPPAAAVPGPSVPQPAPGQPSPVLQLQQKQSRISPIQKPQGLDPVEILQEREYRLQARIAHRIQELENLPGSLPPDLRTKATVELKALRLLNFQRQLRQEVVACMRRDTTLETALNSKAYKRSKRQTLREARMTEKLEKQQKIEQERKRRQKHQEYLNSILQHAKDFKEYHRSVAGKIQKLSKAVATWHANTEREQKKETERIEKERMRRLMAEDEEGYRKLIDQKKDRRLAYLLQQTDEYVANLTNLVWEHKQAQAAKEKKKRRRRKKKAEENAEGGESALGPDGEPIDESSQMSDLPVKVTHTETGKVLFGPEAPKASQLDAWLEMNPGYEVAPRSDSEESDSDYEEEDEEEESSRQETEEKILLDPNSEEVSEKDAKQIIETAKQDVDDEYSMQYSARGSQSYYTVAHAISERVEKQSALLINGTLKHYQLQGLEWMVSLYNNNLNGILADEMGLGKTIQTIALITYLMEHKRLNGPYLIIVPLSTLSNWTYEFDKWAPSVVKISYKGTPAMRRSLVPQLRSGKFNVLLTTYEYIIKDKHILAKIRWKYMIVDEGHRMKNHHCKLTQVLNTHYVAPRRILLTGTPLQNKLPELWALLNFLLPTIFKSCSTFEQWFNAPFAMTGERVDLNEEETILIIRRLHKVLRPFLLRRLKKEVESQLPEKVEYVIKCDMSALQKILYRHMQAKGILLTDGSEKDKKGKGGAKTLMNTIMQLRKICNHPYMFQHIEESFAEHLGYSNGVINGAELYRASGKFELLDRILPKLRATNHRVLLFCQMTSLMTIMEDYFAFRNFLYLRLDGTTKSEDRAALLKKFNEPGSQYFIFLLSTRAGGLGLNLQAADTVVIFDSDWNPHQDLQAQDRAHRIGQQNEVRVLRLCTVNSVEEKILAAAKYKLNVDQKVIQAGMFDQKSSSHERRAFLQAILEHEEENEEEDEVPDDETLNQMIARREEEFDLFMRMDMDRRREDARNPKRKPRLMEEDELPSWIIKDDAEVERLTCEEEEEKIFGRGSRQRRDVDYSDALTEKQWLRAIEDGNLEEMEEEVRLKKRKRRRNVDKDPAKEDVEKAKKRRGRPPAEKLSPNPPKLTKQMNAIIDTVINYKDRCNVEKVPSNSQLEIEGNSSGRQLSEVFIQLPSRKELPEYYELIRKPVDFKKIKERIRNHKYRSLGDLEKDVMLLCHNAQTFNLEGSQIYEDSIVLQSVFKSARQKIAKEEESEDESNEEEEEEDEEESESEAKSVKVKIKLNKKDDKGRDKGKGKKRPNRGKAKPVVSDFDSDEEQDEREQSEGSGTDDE
Method in brief: (§1)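 HeLa monoclonal lines with heterozygous HiBiT knock-in were seeded at 2500 cells/well in EMEM with 10% FBS and treated with compound for 18 h at 37 °C. Remaining tagged protein was measured by Nano-Glo HiBiT lytic luminescence after 30–60 min at RT, and values came from curve fitting.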

[2] = molecular target: T2, SMARCA4-HiBiT (Homo sapiens, UniProt P51532); assay: SMARCA4 HiBiT degradation assay in HeLa cells; assay type: cell-based; details: 18 hours incubation; for DC50: read-out: HeLa-HiBit-SM4 DC50; for Dmax: HeLa, read-out: HeLa-HiBit-SM4 Dmax (%)
T2 construct: SMARCA4-HiBiT knock-in Hela monoclonal cell (CS3023226); host or cells: HeLa monoclonal knock-in line (CRISPR HiBiT knock-in at the endogenous locus, heterozygous)
T2 sequence (P51532 whole entry): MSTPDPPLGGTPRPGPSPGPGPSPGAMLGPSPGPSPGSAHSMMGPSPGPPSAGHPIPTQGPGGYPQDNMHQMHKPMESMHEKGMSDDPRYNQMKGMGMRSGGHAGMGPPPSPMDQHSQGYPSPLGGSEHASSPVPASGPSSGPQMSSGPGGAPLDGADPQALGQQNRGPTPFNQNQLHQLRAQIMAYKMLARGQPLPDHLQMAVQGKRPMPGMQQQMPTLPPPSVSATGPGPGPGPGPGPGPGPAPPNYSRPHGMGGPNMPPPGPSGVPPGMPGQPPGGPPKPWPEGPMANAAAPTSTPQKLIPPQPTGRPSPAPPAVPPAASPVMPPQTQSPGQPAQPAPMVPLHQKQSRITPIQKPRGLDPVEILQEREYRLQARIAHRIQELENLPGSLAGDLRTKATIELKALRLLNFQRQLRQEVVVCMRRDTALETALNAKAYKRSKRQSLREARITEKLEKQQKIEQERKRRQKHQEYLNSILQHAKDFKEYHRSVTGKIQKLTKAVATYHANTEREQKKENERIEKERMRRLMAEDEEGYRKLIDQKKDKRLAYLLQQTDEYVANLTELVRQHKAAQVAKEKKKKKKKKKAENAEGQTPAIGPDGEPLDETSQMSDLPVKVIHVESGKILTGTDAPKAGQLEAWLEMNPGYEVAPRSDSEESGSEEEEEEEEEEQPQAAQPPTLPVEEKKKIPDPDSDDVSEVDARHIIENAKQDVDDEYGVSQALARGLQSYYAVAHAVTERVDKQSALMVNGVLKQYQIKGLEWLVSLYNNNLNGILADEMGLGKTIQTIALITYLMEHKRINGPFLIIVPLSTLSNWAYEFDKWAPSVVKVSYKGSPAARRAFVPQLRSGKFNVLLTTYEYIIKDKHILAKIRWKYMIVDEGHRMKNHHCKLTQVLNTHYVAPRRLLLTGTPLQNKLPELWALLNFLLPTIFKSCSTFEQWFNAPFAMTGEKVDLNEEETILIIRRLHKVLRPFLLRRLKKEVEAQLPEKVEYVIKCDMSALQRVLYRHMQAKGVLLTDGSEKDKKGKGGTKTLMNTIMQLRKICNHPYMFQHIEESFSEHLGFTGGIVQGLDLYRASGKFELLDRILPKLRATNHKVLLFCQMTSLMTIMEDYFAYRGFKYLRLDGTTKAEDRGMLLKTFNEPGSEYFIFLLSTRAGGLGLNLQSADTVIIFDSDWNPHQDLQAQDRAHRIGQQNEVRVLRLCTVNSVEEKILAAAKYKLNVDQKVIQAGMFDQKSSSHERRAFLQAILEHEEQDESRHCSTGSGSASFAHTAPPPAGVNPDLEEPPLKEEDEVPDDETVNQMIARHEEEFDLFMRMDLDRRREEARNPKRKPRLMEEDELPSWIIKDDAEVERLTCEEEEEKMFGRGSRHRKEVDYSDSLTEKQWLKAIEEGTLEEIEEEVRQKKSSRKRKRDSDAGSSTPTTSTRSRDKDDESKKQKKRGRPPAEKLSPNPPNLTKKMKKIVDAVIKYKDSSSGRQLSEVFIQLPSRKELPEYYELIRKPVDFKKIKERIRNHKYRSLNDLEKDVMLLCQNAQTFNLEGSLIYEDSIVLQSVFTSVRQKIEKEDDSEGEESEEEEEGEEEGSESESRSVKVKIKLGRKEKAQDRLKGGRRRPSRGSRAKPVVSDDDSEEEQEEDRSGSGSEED
Method in brief: as §1

SMILES	DC50 [1]	Dmax [1]	DC50 [2]	Dmax [2]
CN(CCCN1CCN2c3cc(-c4ccccc4O)nnc3NC[C@H]2C1)CC1CCN(c2ccc3c(c2)C(=O)N(C2CCC(=O)NC2=O)C3=O)CC1 (stereo partly drawn) [Example 40, 2-(2,6-dioxopiperidin-3-yl)-5-(4-(((3-((S)-2-(2-hydroxyphenyl)-5,6,6a,7,9,10-hexahydro-8H-pyrazino[1′,2′:4,5]pyrazino[2,3-c]pyridazin-8-yl)propyl)(methyl)amino)methyl)piperidin-1-yl)isoindoline-1,3-dione]	< 10 nM	50 to 75%	< 10 nM	50 to 75%
O=C1CCC(N2Cc3cc(C4CCN(C5CCN(CCCN6CCN7c8cc(-c9ccccc9O)nnc8NC[C@H]7C6)CC5)CC4)ccc3C2=O)C(=O)N1 (stereo partly drawn) [Example 209, 3-(5-(1′-(3-((S)-2-(2-hydroxyphenyl)-5,6,6a,7,9,10-hexahydro-8H-pyrazino[1′,2′:4,5]pyrazino[2,3-c]pyridazin-8-yl)propyl)-[1,4′-bipiperidin]-4-yl)-1-oxoisoindolin-2-yl)piperidine-2,6-dione]	< 10 nM	> 85%	< 10 nM	> 85%
O=C1CCC(N2Cc3ccc(N4CC[C@H](CN5C[C@@H]6[C@H](C5)[C@H]6CN5CCN6c7cc(-c8ccccc8O)nnc7NC[C@H]6C5)[C@@H](F)C4)cc3C2=O)C(=O)N1 (stereo partly drawn) [Example 203, 3-(6-((3R,4R)-3-fluoro-4-(((1R,5S,6R)-6-(((S)-2-(2-hydroxyphenyl)-5,6,6a,7,9,10-hexahydro-8H-pyrazino[1′,2′:4,5]pyrazino[2,3-c]pyridazin-8-yl)methyl)-3-azabicyclo[3.1.0]hexan-3-yl)methyl)piperidin-1-yl)-1-oxoisoindolin-2-yl)piperidine-2,6-dione]	< 10 nM	> 85%	< 10 nM	> 85%
C[C@H]1CN(CC2CCN(c3ccc4c(c3)C(=O)N(C3CCC(=O)NC3=O)C4=O)CC2)CCN1C(=O)N1CCN2c3cc(-c4ccccc4O)nnc3NC[C@H]2C1 (stereo partly drawn) [Example 116, 2-(2,6-dioxopiperidin-3-yl)-5-(4-(((S)-4-((S)-2-(2-hydroxyphenyl)-6,6a,7,8,9,10-hexahydro-5H-pyrazino[1′,2′:4,5]pyrazino[2,3-c]pyridazine-8-carbonyl)-3-methyl-piperazin-1-yl)methyl)piperidin-1-yl)isoindoline-1,3-dione]	< 10 nM	75 to 85%	< 10 nM	50 to 75%
O=C1CCC(N2Cc3ccc(N4CCC(CN5C6CCC5CN(C(=O)N5CCN7c8cc(-c9ccccc9O)nnc8NC[C@H]7C5)C6)CC4)cc3C2=O)C(=O)N1 (stereo partly drawn) [Example 103, 3-(6-(4-((3-((S)-2-(2-hydroxyphenyl)-6,6a,7,8,9,10-hexahydro-5H-pyrazino[1′,2′:4,5]pyrazino[2,3-c]pyridazine-8-carbonyl)-3,8-diazabicyclo[3.2.1]octan-8-yl)methyl)piperidin-1-yl)-1-oxoisoindolin-2-yl)piperidine-2,6-dione]	< 10 nM	75 to 85%	10 to 100 nM	75 to 85%
O=C1CCC(N2Cc3ccc(N4CCN(CCN5CCC(CN6CCN7c8cc(-c9ccccc9O)nnc8NC[C@H]7C6)CC5)CC4)cc3C2=O)C(=O)N1 (stereo partly drawn) [Example 119, 3-(6-(4-(2-(4-(((S)-2-(2-hydroxyphenyl)-5,6,6a,7,9,10-hexahydro-8H-pyrazino[1′,2′:4,5]pyrazino[2,3-c]pyridazin-8-yl)methyl)piperidin-1-yl)ethyl)piperazin-1-yl)-1-oxoisoindolin-2-yl)piperidine-2,6-dione]	< 10 nM	> 85%	< 10 nM	> 85%
O=C1CCC(N2C(=O)c3ccc(N4CCC(CN5CCO[C@H](CN6CCN7c8cc(-c9ccccc9O)nnc8NC[C@H]7C6)C5)CC4)cc3C2=O)C(=O)N1 (stereo partly drawn) [Example 75, 2-(2,6-dioxopiperidin-3-yl)-5-(4-(((R)-2-(((S)-2-(2-hydroxyphenyl)-5,6,6a,7,9,10-hexahydro-8H-pyrazino[1′,2′:4,5]pyrazino[2,3-c]pyridazin-8-yl)methyl)morpholino)methyl)piperidin-1-yl)isoindoline-1,3-dione]	< 10 nM	75 to 85%	< 10 nM	75 to 85%
O=C1CCC(N2C(=O)c3ccc(N4CCC(N[C@H]5C[C@H](CN6CCN7c8cc(-c9ccccc9O)nnc8NC[C@H]7C6)C5)CC4)cc3C2=O)C(=O)N1 (stereo partly drawn) [Example 77, 2-(2,6-dioxopiperidin-3-yl)-5-(4-(((1S,3r)-3-(((S)-2-(2-hydroxyphenyl)-5,6,6a,7,9,10-hexahydro-8H-pyrazino[1′,2′:4,5]pyrazino[2,3-c]pyridazin-8-yl)methyl)cyclobutyl)amino)piperidin-1-yl)isoindoline-1,3-dione]	< 10 nM	> 85%	< 10 nM	> 85%
COC1(CN2C[C@@H]3[C@@H](CN4CCN5c6cc(-c7ccccc7O)nnc6NC[C@H]5C4)[C@@H]3C2)CCN(c2ccc3c(c2)C(=O)N(C2CCC(=O)NC2=O)C3)CC1 (stereo partly drawn) [Example 252, 3-(6-(4-(((1R,5S,6s)-6-(((S)-2-(2-hydroxyphenyl)-5,6,6a,7,9,10-hexahydro-8H-pyrazino[1′,2′:4,5]pyrazino[2,3-c]pyridazin-8-yl)methyl)-3-azabicyclo[3.1.0]hexan-3-yl)methyl)-4-methoxypiperidin-1-yl)-1-oxoisoindolin-2-yl)piperidine-2,6-dione]	< 10 nM	> 85%	< 10 nM	> 85%
O=C1CCC(N2Cc3ccc(N4CCC(CN5CCC(F)(CN6CCN7c8cc(-c9ccccc9O)nnc8NC[C@H]7C6)CC5)CC4)cc3C2=O)C(=O)N1 (stereo partly drawn) [Example 233, 3-(6-(4-((4-fluoro-4-(((S)-2-(2-hydroxyphenyl)-5,6,6a,7,9,10-hexahydro-8H-pyrazino[1′,2′:4,5]pyrazino[2,3-c]pyridazin-8-yl)methyl)piperidin-1-yl)methyl)piperidin-1-yl)-1-oxoisoindolin-2-yl)piperidine-2,6-dione]	< 10 nM	> 85%	< 10 nM	> 85%
O=C1CCC(N2C(=O)c3ccc(N4CCC(CN5CC6COCC(C5)C6CN5CCN6c7cc(-c8ccccc8O)nnc7NC[C@H]6C5)CC4)cc3C2=O)C(=O)N1 (stereo partly drawn) [Example 132, 2-(2,6-dioxopiperidin-3-yl)-5-(4-((9-(((S)-2-(2-hydroxyphenyl)-5,6,6a,7,9,10-hexahydro-8H-pyrazino[1′,2′:4,5]pyrazino[2,3-c]pyridazin-8-yl)methyl)-3-oxa-7-azabicyclo[3.3.1]nonan-7-yl)methyl)piperidin-1-yl)isoindoline-1,3-dione]	< 10 nM	> 85%	< 10 nM	75 to 85%
O=C1CCC(N2C(=O)c3ccc(C4CCN(CC5CCN(C(=O)N6CCN7c8cc(-c9ccccc9O)nnc8NC[C@H]7C6)CC5)CC4)cc3C2=O)C(=O)N1 (stereo partly drawn) [Example 144, 2-(2,6-dioxopiperidin-3-yl)-5-(1-((1-((S)-2-(2-hydroxyphenyl)-6,6a,7,8,9,10-hexahydro-5H-pyrazino[1′,2′:4,5]pyrazino[2,3-c]pyridazine-8-carbonyl)piperidin-4-yl)methyl)piperidin-4-yl)isoindoline-1,3-dione]	< 10 nM	75 to 85%	< 10 nM	75 to 85%
